Measured values from patent publication US20040044177A1, “Peptide compounds having improved binding affinity to somatostatin receptors” (priority 2002, published 2004).
Bridge positions count the residues as written; N and C are the ends. Square brackets hold non-standard residues; d marks the D form. Peptide text beside a SMILES is read from it. * marks the point of attachment. DOTA = O=C(O)CN1CCN(CC(=O)O)CCN(CC(=O)*)CCN(CC(=O)O)CC1; 1Nal = N[C@@H](Cc1cccc2ccccc12)C(=O)O; Bta = N[C@@H](Cc1csc2ccccc12)C(=O)O; Thr(ol) = C[C@@H](O)[C@H](N)CO

Key:
[1] = target: T1, human somatostatin receptor subtype hsst3 (Homo sapiens, UniProt P32745); experiment: In vitro binding affinity, transfected cell lines, hsst 3; parameters: expressed in transfected cells; details: compared with cpd. 6 (Y-DOTA-LAN)
T1 sequence (P32745 whole entry): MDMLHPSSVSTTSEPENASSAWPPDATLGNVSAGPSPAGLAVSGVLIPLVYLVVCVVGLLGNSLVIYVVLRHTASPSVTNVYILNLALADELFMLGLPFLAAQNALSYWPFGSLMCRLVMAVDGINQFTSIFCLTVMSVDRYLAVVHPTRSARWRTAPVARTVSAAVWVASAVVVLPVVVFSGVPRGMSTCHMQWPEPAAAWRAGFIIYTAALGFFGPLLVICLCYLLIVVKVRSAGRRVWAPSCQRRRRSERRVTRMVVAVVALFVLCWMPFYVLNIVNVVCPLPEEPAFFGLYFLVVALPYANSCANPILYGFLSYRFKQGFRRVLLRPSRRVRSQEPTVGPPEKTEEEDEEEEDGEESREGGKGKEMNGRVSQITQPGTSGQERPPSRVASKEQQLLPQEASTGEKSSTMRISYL

[2] = target: T2, somatostatin human receptor subtype (hsst) 2 (Homo sapiens, UniProt P30874); experiment: In vitro binding affinity, transfected cell lines, hsst 2; details: compared with compound 7 (Y-DOTA-TOC)
T2 construct: expressed in transfected cells
T2 sequence (P30874 whole entry): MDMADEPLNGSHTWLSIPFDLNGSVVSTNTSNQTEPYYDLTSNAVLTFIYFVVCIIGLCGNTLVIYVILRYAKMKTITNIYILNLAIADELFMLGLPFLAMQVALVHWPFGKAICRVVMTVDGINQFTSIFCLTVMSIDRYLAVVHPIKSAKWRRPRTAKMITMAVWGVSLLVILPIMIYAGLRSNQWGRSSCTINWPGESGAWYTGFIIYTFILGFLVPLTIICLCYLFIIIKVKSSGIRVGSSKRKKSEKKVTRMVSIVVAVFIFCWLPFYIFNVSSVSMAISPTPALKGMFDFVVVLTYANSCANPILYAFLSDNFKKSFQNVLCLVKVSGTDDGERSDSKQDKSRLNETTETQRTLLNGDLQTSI

[3] = target: human somatostatin receptor subtype hsst5 (Homo sapiens, UniProt P35346); experiment: In vitro binding affinity of peptide analogs (Table III), hsst5; details: DOTA complexed with stable Y or In
Sequence of human somatostatin receptor subtype hsst5 (P35346 whole entry): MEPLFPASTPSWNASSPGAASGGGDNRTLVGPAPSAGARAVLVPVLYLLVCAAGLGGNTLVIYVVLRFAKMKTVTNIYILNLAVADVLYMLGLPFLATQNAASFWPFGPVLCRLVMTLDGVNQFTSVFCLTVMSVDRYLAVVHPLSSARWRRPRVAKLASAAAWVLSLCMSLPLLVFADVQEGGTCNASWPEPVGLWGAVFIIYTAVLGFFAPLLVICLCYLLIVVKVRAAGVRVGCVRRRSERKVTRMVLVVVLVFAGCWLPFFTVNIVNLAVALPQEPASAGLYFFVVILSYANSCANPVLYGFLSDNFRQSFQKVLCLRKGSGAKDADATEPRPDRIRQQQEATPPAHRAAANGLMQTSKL
Protocol: (§1) IC50 values were determined as described by Reubi et al. (Eur J Nuc Med 28:836-846, 2001).

[4] = target: T1, human somatostatin receptor subtype hsst3; experiment: In vitro binding affinity of peptide analogs (Table III), hsst3; details: DOTA complexed with stable Y or In
Protocol: Table III, presents the binding affinity of the new compounds to human somatostatin receptor subtypes as compared to the compound, Y-DOTA-TATE, described by Srinivasan et al. (U.S. Pat. No. 5,830,431).
as §1

| affinity to sst 3 relative to cpd. 6 [1] | binding affinity to sst 2 relative to compound 7 [2] | IC50 [3] [nM] | IC50 [4] [nM] | SMILES |
| --- | --- | --- | --- | --- |
| approx. five times better | approx. three times better | – | – | C[C@@H](O)[C@@H]1NC(=O)[C@H](CCCCN)NC(=O)[C@@H](Cc2c[nH]c3ccccc23)NC(=O)[C@H](Cc2cccc3ccccc23)NC(=O)[C@@H](NC(=O)[C@@H](Cc2ccccc2)NC(=O)CN2CCN(CC(=O)O)CCN(CC(=O)O)CCN(CC(=O)O)CC2)CSSC[C@@H](C(=O)N[C@H](CO)[C@@H](C)O)NC1=O [cpd. 8, ^90Y-labelled DOTA-(D)Phe-cyclo[Cys-(D) 1-Nal-(D)Trp-Lys-Thr-Cys]-Thr-ol, metal not drawn] ({DOTA}-[dF]C[1Nal][dW]KTC[Thr(ol)]; disulfide 2-7) |
| – | approx. three times better | – | – | C[C@@H](O)[C@@H]1NC(=O)[C@H](CCCCN)NC(=O)[C@@H](Cc2c[nH]c3ccccc23)NC(=O)[C@H](Cc2csc3ccccc23)NC(=O)[C@@H](NC(=O)[C@@H](Cc2ccccc2)NC(=O)CN2CCN(CC(=O)O)CCN(CC(=O)O)CCN(CC(=O)O)CC2)CSSC[C@@H](C(=O)N[C@H](CO)[C@@H](C)O)NC1=O [cpd. 9, ^90Y-labelled DOTA-(D)Phe-cyclo[Cys-(D)3-benzothienylalanyl-(D)Trp-Lys-Thr-Cys]-Thr-ol, metal not drawn] ({DOTA}-[dF]C[Bta][dW]KTC[Thr(ol)]; disulfide 2-7) |
| – | – | 65 | 170 | C[C@@H](O)[C@H](NC(=O)[C@@H]1CSSC[C@H](NC(=O)[C@@H](Cc2ccccc2)NC(=O)CN2CCN(CC(=O)O)CCN(CC(=O)O)CCN(CC(=O)O)CC2)C(=O)N[C@@H](Cc2ccc(O)c(I)c2)C(=O)N[C@H](Cc2c[nH]c3ccccc23)C(=O)N[C@@H](CCCCN)C(=O)N[C@@H]([C@@H](C)O)C(=O)N1)C(=O)O [compound 2] |
